Laboratory results: publication PMC7549094 (Journal of Medicinal Chemistry, 2020)
In brackets after ≈: the same amount, converted by molar mass.

Legend:
CYP2D15 = CYP2D15 (Canis lupus familiaris, UniProt Q29473); conditions: panel of dog recombinant CYP enzymes; 1 µM, 30 min
[1] = microsomal extraction ratio, 1 h incubation in microsomes
[2] = high-throughput solubility pH 6.8; assay type: physicochemical; conditions: high-throughput assay format, read-out: HT sol. pH 6.8
ov COX-1 = target: T1, ov COX-1 (Ovis aries, UniProt P05979); experiment: receptor profile (Table S4); assay type: biochemical, ovine
T1 sequence (P05979 25-600): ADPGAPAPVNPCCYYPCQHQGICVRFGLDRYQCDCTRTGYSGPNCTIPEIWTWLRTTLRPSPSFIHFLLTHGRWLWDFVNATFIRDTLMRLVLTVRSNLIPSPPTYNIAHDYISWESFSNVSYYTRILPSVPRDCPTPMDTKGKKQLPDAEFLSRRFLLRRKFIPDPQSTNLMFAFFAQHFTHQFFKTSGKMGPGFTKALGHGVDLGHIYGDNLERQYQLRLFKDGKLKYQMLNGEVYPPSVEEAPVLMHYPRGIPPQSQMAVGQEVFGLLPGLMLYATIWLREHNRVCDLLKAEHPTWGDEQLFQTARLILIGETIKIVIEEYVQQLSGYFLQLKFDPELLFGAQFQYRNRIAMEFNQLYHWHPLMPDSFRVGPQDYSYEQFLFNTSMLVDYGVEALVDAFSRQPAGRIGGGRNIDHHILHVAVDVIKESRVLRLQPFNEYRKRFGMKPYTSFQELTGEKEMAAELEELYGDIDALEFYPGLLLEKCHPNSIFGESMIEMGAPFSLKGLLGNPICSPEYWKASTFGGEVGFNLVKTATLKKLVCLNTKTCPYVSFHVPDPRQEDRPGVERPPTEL

[3] = metabolite profile in mouse hepatocytes; assay type: in vitro ADME; conditions: 10 μM of 1 for 4 h, UV 250 nm, normalized to largest peak
[4] = metabolite profile in human hepatocytes; assay type: in vitro ADME; conditions: 10 μM of 1 for 4 h, UV 250 nm, normalized to largest peak
hr Beta2 ag = hr Beta2 ag (Homo sapiens, UniProt P07550); experiment: receptor profile (Table S4); assay type: biochemical
hr Ad1 = target: T2, hr Ad1 (Homo sapiens, UniProt P30542); experiment: receptor profile (Table S4); assay type: binding
T2 sequence (P30542 1-326): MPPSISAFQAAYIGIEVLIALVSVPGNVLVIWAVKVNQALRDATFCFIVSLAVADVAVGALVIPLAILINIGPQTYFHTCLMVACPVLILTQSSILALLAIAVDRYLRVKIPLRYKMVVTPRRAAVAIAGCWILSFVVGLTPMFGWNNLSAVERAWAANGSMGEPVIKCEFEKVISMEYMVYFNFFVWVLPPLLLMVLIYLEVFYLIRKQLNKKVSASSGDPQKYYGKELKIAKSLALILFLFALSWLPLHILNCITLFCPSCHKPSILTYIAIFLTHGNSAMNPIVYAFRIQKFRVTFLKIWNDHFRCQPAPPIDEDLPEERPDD

hr M2 ag = target: T3, hr M2 ag (Homo sapiens, UniProt P08172); experiment: receptor profile (Table S4); assay type: biochemical
T3 sequence (P08172 1-466): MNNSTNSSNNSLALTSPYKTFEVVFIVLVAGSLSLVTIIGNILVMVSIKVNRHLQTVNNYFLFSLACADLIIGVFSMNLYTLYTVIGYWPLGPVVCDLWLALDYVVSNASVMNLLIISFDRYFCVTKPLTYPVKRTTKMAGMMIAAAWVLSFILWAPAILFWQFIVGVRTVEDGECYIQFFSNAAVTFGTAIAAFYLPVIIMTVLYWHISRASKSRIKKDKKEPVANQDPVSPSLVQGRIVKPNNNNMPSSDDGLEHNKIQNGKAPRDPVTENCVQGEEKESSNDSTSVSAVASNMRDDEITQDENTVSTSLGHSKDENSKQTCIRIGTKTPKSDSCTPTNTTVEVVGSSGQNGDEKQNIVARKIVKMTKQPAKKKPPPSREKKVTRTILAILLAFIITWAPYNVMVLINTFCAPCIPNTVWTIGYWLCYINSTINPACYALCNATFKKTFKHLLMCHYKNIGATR

BSEP = BSEP (Homo sapiens, UniProt O95342); experiment: receptor profile (Table S4), second BSEP line; conditions: human
hr BSEP = hr BSEP (Homo sapiens, UniProt O95342); experiment: receptor profile (Table S4), second BSEP line; conditions: hr BSEP, second line
hr CCKa = target: T4, hr CCKa (Homo sapiens, UniProt P32238); experiment: receptor profile (Table S4); assay type: binding
T4 sequence (P32238 1-428): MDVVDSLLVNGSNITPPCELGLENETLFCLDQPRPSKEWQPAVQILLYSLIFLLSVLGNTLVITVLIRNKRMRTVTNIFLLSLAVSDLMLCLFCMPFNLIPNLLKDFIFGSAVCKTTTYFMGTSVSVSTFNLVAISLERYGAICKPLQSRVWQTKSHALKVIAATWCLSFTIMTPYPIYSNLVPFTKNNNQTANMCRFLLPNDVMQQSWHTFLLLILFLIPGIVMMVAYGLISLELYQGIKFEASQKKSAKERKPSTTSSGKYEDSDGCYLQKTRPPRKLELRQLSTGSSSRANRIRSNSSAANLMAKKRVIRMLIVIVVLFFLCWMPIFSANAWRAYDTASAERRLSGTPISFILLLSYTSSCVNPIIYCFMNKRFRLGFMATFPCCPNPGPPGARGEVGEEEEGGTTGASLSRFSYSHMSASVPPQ

hr Ad2A = hr Ad2A (Homo sapiens, UniProt P29274); experiment: receptor profile (Table S4); assay type: binding
hr EGFR = hr EGFR (Homo sapiens, UniProt P00533); experiment: receptor profile (Table S4); assay type: biochemical
Chain of hr EGFR (P00533 25-1210): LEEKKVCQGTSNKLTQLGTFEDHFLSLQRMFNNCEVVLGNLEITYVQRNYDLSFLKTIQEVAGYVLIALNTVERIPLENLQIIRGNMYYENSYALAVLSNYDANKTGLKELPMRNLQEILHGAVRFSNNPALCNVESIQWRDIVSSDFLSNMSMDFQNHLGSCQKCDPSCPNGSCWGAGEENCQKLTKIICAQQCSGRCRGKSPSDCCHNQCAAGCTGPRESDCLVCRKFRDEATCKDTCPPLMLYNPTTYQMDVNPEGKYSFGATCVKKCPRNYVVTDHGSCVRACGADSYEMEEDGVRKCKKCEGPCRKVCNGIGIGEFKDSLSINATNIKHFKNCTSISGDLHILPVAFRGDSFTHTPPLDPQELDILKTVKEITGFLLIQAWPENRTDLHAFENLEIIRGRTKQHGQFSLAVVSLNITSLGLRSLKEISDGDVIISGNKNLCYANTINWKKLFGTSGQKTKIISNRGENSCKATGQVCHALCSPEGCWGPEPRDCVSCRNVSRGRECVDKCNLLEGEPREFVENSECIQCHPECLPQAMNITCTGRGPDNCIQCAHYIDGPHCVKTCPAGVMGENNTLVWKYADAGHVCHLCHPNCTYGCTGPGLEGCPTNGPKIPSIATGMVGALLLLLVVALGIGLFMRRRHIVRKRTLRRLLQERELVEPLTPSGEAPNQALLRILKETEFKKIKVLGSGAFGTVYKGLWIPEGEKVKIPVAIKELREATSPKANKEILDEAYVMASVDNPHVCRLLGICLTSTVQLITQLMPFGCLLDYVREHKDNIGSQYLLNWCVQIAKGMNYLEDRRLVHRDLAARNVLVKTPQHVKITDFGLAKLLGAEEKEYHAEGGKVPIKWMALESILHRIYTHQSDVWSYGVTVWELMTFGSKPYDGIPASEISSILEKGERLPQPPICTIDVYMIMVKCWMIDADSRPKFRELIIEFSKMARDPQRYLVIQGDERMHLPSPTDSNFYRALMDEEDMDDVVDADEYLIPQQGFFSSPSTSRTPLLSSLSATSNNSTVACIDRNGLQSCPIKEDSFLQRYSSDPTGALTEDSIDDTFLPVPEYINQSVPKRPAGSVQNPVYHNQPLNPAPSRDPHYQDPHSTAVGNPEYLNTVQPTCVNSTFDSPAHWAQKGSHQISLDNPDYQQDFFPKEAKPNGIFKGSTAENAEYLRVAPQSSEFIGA

Chain of hr Ad2A (P29274 whole entry): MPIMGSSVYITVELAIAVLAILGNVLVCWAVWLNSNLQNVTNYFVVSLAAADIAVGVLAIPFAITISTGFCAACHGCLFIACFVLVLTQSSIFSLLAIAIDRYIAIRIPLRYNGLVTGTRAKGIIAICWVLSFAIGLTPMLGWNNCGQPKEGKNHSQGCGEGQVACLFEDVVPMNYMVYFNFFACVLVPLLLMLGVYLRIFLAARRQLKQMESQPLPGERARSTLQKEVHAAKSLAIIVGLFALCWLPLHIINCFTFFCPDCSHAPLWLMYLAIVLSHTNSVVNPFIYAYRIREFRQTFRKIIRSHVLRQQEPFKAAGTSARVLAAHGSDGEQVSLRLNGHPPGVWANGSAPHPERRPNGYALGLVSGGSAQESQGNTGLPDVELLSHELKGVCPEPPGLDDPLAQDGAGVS
Chain of hr Beta2 ag (P07550 whole entry): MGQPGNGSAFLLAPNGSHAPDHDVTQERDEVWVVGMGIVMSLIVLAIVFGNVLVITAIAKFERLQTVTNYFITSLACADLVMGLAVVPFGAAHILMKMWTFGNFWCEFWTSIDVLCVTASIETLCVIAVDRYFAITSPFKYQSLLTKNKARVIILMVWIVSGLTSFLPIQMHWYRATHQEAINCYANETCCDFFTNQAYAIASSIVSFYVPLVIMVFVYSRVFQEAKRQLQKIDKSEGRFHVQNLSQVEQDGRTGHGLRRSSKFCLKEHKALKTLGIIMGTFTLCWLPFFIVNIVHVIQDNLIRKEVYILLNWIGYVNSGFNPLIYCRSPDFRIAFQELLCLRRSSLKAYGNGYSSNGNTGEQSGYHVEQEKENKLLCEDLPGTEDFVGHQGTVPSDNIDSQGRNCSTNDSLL
Chain of BSEP (O95342 whole entry): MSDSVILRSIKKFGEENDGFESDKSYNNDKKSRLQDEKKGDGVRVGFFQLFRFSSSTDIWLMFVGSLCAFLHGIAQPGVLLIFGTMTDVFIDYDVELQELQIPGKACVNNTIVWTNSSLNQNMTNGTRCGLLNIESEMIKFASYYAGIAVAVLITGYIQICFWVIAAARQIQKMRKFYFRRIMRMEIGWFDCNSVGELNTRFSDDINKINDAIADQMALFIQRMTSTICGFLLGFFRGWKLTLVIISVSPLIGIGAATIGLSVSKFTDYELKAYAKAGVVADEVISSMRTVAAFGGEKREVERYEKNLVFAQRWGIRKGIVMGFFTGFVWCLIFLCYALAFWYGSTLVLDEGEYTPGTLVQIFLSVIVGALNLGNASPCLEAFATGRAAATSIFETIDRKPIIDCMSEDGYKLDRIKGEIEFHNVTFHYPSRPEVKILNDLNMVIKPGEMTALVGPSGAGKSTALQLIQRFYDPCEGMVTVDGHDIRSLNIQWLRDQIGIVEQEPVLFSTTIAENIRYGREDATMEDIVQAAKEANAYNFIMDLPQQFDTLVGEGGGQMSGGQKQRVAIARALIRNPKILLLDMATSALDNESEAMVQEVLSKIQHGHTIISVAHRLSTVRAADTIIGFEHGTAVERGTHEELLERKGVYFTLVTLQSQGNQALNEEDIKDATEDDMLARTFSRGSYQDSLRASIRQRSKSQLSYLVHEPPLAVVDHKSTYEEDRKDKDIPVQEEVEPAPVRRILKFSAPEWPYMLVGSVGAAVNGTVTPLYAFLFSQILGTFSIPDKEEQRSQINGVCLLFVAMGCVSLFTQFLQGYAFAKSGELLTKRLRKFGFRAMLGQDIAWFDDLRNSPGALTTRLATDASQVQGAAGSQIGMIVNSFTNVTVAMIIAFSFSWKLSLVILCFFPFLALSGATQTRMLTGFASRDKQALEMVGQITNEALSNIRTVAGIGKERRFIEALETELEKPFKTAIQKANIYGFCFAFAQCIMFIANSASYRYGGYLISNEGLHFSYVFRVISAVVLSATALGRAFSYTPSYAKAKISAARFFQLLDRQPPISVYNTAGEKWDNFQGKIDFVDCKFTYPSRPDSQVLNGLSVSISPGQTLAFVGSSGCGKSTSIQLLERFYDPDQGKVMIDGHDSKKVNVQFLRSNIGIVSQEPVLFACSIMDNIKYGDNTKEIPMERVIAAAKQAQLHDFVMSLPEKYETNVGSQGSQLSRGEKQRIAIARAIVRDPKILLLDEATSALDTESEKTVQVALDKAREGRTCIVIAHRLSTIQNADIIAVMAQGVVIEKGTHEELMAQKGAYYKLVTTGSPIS
Chain of hr BSEP (O95342 whole entry): as above
Chain of CYP2D15 (Q29473 whole entry): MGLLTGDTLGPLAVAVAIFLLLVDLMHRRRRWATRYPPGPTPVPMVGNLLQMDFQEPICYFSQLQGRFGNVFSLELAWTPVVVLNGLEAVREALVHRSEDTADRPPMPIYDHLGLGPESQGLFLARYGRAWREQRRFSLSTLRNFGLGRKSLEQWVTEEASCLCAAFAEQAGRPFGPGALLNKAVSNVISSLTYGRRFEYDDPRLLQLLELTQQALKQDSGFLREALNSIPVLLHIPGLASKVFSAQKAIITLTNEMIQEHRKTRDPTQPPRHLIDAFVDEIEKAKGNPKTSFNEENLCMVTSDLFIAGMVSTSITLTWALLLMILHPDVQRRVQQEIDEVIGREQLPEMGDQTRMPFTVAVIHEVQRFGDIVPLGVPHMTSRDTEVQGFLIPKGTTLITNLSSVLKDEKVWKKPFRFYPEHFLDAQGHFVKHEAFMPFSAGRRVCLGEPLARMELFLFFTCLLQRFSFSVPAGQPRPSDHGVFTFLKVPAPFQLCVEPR

Compound: Cc1nc(C)c(C(=O)Nc2ccc(F)c(-c3nc4ncc(-c5ncccc5C)cn4n3)c2)o1 [compound 1, N-(4-Fluoro-3-(6-(3-methylpyridin-2-yl)-[1,2,4]triazolo[1,5-a]pyrimidin-2-yl)phenyl)-2,4-dimethyloxazole-5-carboxamide]
- metabolism by dog recombinant CYP enzymes (CYP2D15): metabolized to 8 predominantly by CYP2D15
- ER mouse [1]: < 0.21
- solubility kinetic [2]: 17 µM (≈ 7.54 µg/mL)
- EC50/IC50 (ov COX-1; ov COX-1): > 30 µM
- inhibition at 10 µM (ov COX-1; read-out: % inh/act @ 10 µM): 16%
- inhibition at 30 µM (ov COX-1; read-out: % inh/act @ 30 µM): 14%
- abundance mouse [3]: +++ (+++ > 75%)
- abundance human [4]: +++ (+++ > 75%)
- EC50/IC50 (hr Beta2 ag; hr Beta2 ag): > 30 µM
- inhibition at 10 µM (hr Beta2 ag; read-out: % inh/act @ 10 µM): 1%
- inhibition at 30 µM (hr Beta2 ag; read-out: % inh/act @ 30 µM): 7%
- EC50/IC50 (hr Ad1; hr Ad1): > 30 µM
- inhibition at 10 µM (hr Ad1; read-out: % inh/act @ 10 µM): 10%
- inhibition at 30 µM (hr Ad1; read-out: % inh/act @ 30 µM): 27%
- EC50/IC50 (hr M2 ag; hr M2 ag): > 30 µM
- inhibition at 10 µM (hr M2 ag; read-out: % inh/act @ 10 µM): 0%
- inhibition at 30 µM (hr M2 ag; read-out: % inh/act @ 30 µM): 1%
- inhibition at 10 µM (BSEP): 40%
- inhibition at 30 µM (BSEP): 56%
- EC50/IC50 (hr BSEP): 17 µM
- EC50/IC50 (hr CCKa; hr CCKa): > 30 µM
- inhibition at 10 µM (hr CCKa; read-out: % inh/act @ 10 µM): 12%
- inhibition at 30 µM (hr CCKa; read-out: % inh/act @ 30 µM): 50%
- % inh/act @ 10 µM (hr GABAA ag): -11%
- % inh/act @ 30 µM (hr GABAA ag): -2%
- EC50/IC50 (hr Ad2A; hr Ad2A): > 30 µM
- inhibition at 10 µM (hr Ad2A; read-out: % inh/act @ 10 µM): 26%
- inhibition at 30 µM (hr Ad2A; read-out: % inh/act @ 30 µM): 52%
- EC50/IC50 (hr EGFR; hr EGFR): > 30 µM
- inhibition at 10 µM (hr EGFR; read-out: % inh/act @ 10 µM): 16%
- inhibition at 30 µM (hr EGFR; read-out: % inh/act @ 30 µM): 17%
